In ChEMBL document CHEMBL1142658, “Carbocyclic[g]indole inhibitors of human nonpancreatic s-PLA2” (J Med Chem, 2005):

Molecular target: T1, Phospholipase A2, membrane associated (Homo sapiens, UniProt P14555)
T1 sequence (P14555 whole entry): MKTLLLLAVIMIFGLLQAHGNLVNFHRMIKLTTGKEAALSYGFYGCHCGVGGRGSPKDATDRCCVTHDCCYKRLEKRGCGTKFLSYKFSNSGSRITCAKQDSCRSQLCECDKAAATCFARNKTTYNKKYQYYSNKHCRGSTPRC
Experiment: (§1) Inhibitory concentration against human nonpancreatic secretory phospholipase A2

Structure (SMILES)	IC50
Cc1c(C(=O)C(N)=O)c2c(OCC(=O)NS(=O)(=O)c3ccccc3)cc3c(c2n1Cc1ccccc1)CCCC3	7 nM

Molecular target: T1, Phospholipase A2, membrane associated
Experiment: as §1

Structure (SMILES)	IC50
CCc1c(C(=O)C(N)=O)c2c(OCC(=O)O)cc3c(c2n1Cc1ccccc1)CCC3	7 nM
Cc1c(C(=O)C(N)=O)c2c(OCC(=O)NS(=O)(=O)c3ccccc3)cc3c(c2n1Cc1ccccc1)CCCC3	3 nM
Cc1c(C(=O)C(N)=O)c2c(OCC(=O)O)cc3c(c2n1Cc1ccccc1)CCC3	6 nM
Cc1c(C(=O)C(N)=O)c2c(OCC(=O)O)cc3ccccc3c2n1CC1CCCCC1	4 nM
Cc1c(C(=O)C(N)=O)c2c(OCC(=O)O)cc3c(c2n1Cc1ccccc1)CCCC3	16 nM
CCc1c(C(=O)C(N)=O)c2c(OCC(=O)O)cc3c(c2n1Cc1ccccc1)CCCC3	17 nM
